Results from article PMC10239507, “Development of allosteric and selective CDK2 inhibitors for contraception with negative cooperativity to cyclin binding” (Nature Communications, 2023).

Legend:
Experiment in all cases: biochemical
[1] = biological target: T1, 371 kinases (kinase named in each endpoint) (Homo sapiens, UniProt Q16539); conditions: P38A/MAPK14
T1 construct: purchased Reaction Biology

[2] = biological target: T2, 371 kinases (kinase named in each endpoint) (Homo sapiens, UniProt Q92918); conditions: HPK1/MAP4K1
T2 construct: purchased Reaction Biology

[3] = biological target: T3, 371 kinases (kinase named in each endpoint) (Homo sapiens, UniProt P42685); conditions: FRK/PTK5
T3 construct: purchased Reaction Biology

[4] = biological target: T4, 371 kinases (kinase named in each endpoint) (Homo sapiens, UniProt Q13557); conditions: CAMK2D
T4 construct: purchased Reaction Biology

[5] = biological target: T5, 371 kinases (kinase named in each endpoint) (Homo sapiens, UniProt P57078); conditions: RIPK4
T5 construct: purchased Reaction Biology

[6] = biological target: T6, 371 kinases (kinase named in each endpoint) (Homo sapiens, UniProt P06239); conditions: LCK
T6 construct: purchased Reaction Biology
T6 sequence (P06239 whole entry): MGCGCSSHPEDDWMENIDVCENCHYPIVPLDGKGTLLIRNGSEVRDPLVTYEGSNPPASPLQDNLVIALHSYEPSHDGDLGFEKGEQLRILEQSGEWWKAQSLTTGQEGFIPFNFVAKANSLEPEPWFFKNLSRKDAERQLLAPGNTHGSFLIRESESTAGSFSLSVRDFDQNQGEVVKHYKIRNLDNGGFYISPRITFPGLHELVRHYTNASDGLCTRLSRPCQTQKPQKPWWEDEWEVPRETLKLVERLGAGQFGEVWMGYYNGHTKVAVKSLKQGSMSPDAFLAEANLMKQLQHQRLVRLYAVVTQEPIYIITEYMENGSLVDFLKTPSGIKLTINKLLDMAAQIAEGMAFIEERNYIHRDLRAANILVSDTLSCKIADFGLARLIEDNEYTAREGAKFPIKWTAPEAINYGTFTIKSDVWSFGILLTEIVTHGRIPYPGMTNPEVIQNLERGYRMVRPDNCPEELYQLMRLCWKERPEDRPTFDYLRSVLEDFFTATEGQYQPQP

[7] = biological target: T7, 371 kinases (kinase named in each endpoint) (Homo sapiens, UniProt Q6P5Z2); conditions: PKN3/PRK3
T7 construct: purchased Reaction Biology
T7 sequence (Q6P5Z2 whole entry): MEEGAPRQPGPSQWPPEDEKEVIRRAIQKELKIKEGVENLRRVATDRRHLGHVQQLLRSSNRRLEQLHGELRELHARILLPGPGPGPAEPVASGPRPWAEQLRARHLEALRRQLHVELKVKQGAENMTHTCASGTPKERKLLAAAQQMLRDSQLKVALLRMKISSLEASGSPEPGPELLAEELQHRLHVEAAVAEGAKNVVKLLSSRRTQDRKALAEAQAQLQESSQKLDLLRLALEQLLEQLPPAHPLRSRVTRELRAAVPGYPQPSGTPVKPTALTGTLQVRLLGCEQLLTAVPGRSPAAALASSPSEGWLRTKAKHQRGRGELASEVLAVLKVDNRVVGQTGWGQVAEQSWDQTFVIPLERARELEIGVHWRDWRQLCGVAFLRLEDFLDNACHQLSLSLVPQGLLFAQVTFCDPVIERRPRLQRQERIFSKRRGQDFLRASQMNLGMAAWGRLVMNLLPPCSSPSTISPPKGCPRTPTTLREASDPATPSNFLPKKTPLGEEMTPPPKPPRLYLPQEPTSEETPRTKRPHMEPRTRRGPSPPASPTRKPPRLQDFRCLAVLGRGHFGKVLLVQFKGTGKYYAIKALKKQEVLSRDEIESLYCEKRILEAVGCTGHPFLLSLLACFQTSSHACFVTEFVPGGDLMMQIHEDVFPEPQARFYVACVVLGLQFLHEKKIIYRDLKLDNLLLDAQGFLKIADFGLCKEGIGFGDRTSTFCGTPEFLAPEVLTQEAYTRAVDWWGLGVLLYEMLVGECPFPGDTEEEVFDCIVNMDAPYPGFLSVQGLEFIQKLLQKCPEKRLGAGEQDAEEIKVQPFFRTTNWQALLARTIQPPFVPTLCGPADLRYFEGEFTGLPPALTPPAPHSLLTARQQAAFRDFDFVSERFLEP

[8] = biological target: T8, 371 kinases (kinase named in each endpoint) (Homo sapiens, UniProt Q96PF2); conditions: TSSK2
T8 construct: purchased Reaction Biology

[9] = biological target: T9, 371 kinases (kinase named in each endpoint) (Homo sapiens, UniProt Q8N5S9); conditions: CAMKK1
T9 construct: purchased Reaction Biology
T9 sequence (Q8N5S9 whole entry): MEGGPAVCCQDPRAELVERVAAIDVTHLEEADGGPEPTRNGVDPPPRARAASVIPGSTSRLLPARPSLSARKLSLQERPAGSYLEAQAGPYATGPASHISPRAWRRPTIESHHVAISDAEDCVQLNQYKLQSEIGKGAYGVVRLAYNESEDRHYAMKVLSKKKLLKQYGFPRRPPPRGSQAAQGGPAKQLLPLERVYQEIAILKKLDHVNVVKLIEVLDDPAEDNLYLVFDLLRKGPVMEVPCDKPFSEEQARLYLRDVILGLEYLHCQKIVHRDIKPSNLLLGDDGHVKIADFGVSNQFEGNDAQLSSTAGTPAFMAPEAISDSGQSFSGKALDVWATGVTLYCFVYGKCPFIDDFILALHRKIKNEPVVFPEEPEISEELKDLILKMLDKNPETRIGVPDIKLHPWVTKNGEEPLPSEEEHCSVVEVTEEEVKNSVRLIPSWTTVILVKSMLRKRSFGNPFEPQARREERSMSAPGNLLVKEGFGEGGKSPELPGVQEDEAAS

[10] = biological target: T10, 371 kinases (kinase named in each endpoint) (Homo sapiens, UniProt P30530); conditions: AXL
T10 construct: purchased Reaction Biology

[11] = biological target: T11, 371 kinases (kinase named in each endpoint) (Homo sapiens, UniProt P36507); conditions: MEK2
T11 construct: purchased Reaction Biology
T11 sequence (P36507 whole entry): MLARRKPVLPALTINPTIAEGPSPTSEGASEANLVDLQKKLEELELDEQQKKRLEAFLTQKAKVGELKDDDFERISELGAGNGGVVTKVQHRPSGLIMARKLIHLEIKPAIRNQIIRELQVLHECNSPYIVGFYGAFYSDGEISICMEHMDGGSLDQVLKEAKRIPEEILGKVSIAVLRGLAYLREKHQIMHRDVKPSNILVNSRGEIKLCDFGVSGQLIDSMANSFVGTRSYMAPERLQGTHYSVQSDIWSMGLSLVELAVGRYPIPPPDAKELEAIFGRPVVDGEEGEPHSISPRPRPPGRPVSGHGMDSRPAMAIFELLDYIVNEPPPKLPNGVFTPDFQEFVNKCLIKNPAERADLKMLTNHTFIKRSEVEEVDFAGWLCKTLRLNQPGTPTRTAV

[12] = biological target: T12, 371 kinases (kinase named in each endpoint) (Homo sapiens, UniProt O15146); conditions: MUSK
T12 construct: purchased Reaction Biology

[13] = biological target: T13, 371 kinases (kinase named in each endpoint) (Homo sapiens, UniProt Q9UHD2); conditions: TBK1
T13 construct: purchased Reaction Biology

[14] = biological target: T14, 371 kinases (kinase named in each endpoint) (Homo sapiens, UniProt P07332); conditions: FES/FPS
T14 construct: purchased Reaction Biology

[15] = biological target: T15, 371 kinases (kinase named in each endpoint) (Homo sapiens, UniProt Q9UIK4); conditions: DAPK2
T15 construct: purchased Reaction Biology

[16] = biological target: T16, 371 kinases (kinase named in each endpoint) (Homo sapiens, UniProt Q86Y07); conditions: VRK2
T16 construct: purchased Reaction Biology

[17] = biological target: T17, 371 kinases (kinase named in each endpoint) (Homo sapiens, UniProt O14757); conditions: CHK1
T17 construct: purchased Reaction Biology

[18] = biological target: T18, 371 kinases (kinase named in each endpoint) (Homo sapiens, UniProt O15530); conditions: PDK1/PDPK1
T18 construct: purchased Reaction Biology

[19] = biological target: T19, 371 kinases (kinase named in each endpoint) (Homo sapiens, UniProt O00506); conditions: STK25/YSK1
T19 construct: purchased Reaction Biology

[20] = biological target: T20, 371 kinases (kinase named in each endpoint) (Homo sapiens, UniProt Q9UBE8); conditions: NLK
T20 construct: purchased Reaction Biology

[21] = biological target: T21, 371 kinases (kinase named in each endpoint) (Homo sapiens, UniProt Q9NRM7); conditions: LATS2
T21 construct: purchased Reaction Biology

[22] = biological target: T22, 371 kinases (kinase named in each endpoint) (Homo sapiens, UniProt Q8IVT5); conditions: KSR1
T22 construct: purchased Reaction Biology

[23] = biological target: T23, 371 kinases (kinase named in each endpoint) (Homo sapiens, UniProt Q9UEE5); conditions: DRAK1/STK17A
T23 construct: purchased Reaction Biology
T23 sequence (Q9UEE5 whole entry): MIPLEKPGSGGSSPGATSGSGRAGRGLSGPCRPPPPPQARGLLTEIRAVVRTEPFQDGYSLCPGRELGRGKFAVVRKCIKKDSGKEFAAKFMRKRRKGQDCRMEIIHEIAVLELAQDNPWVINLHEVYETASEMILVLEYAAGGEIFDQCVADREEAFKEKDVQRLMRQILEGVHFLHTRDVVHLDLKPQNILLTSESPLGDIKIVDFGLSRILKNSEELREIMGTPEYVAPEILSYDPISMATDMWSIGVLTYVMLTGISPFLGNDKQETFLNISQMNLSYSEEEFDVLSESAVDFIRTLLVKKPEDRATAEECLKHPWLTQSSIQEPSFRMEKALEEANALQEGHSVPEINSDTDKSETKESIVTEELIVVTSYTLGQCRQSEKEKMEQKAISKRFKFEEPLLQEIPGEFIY

[24] = biological target: T24, 371 kinases (kinase named in each endpoint) (Homo sapiens, UniProt O14965); conditions: AURORA A
T24 construct: purchased Reaction Biology
T24 sequence (O14965 whole entry): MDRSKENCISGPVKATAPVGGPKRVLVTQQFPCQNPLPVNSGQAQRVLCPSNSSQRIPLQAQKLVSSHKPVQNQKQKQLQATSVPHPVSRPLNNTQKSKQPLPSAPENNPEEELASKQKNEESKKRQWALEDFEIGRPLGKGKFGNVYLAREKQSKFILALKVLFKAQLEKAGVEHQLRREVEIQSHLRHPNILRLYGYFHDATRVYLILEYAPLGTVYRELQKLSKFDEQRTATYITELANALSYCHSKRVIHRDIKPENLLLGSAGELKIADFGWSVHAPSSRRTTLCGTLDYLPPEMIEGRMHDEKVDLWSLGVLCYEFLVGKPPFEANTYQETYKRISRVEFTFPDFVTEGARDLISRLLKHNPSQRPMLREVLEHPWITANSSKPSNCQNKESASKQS

[25] = biological target: T25, 371 kinases (kinase named in each endpoint) (Homo sapiens, UniProt P22455); conditions: FGFR4
T25 construct: purchased Reaction Biology

[26] = biological target: T26, 371 kinases (kinase named in each endpoint) (Homo sapiens, UniProt O00238); conditions: ALK6/BMPR1B
T26 construct: purchased Reaction Biology

[27] = biological target: T27, 371 kinases (kinase named in each endpoint) (Homo sapiens, UniProt P00533); conditions: EGFR
T27 construct: purchased Reaction Biology

[28] = biological target: T28, 371 kinases (kinase named in each endpoint) (Homo sapiens, UniProt Q02750); conditions: MEK1
T28 construct: purchased Reaction Biology
T28 sequence (Q02750 whole entry): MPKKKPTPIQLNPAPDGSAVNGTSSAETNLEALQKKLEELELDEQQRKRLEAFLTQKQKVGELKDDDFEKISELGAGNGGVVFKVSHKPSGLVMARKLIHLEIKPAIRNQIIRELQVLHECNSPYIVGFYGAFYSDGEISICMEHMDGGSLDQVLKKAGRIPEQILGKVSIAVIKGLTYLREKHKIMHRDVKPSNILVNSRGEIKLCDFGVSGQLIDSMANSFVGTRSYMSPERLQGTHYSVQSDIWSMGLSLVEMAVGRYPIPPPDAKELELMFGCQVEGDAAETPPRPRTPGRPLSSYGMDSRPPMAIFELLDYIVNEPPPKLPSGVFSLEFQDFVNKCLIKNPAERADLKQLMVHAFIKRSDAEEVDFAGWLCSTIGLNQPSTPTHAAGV

[29] = biological target: T29, 371 kinases (kinase named in each endpoint) (Homo sapiens, UniProt Q8N752); conditions: CK1A1L
T29 construct: purchased Reaction Biology
T29 sequence (Q8N752 whole entry): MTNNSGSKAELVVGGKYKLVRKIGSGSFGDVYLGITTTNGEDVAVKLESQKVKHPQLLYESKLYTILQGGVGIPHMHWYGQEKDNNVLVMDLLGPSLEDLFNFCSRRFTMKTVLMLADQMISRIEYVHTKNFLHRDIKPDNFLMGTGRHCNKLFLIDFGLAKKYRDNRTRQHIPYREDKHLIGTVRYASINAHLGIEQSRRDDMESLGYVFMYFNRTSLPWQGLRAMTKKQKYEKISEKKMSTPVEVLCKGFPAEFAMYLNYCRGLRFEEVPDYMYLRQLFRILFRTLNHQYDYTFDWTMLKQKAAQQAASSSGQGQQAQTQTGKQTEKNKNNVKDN

[30] = biological target: T30, 371 kinases (kinase named in each endpoint) (Homo sapiens, UniProt O60285); conditions: ARK5/NUAK1
T30 construct: purchased Reaction Biology

[31] = biological target: T31, 371 kinases (kinase named in each endpoint) (Homo sapiens, UniProt P48729); conditions: CK1A1
T31 construct: purchased Reaction Biology

[32] = biological target: T32, 371 kinases (kinase named in each endpoint) (Homo sapiens, UniProt P49674); conditions: CK1EPSILON
T32 construct: purchased Reaction Biology
T32 sequence (P49674 whole entry): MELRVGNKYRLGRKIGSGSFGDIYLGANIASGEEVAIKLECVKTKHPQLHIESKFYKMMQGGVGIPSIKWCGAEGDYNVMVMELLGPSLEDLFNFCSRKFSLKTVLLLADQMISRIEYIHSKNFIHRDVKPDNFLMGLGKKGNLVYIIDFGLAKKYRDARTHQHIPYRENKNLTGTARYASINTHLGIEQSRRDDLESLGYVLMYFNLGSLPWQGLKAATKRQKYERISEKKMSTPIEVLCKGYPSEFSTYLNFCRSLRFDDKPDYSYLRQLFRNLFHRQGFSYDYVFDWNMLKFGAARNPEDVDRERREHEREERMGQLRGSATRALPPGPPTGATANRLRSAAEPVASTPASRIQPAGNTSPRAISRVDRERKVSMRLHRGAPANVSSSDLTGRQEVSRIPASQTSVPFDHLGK

[33] = biological target: T33, 371 kinases (kinase named in each endpoint) (Homo sapiens, UniProt P51451); conditions: BLK
T33 construct: purchased Reaction Biology

[34] = biological target: T34, 371 kinases (kinase named in each endpoint) (Homo sapiens, UniProt Q9UQB9); conditions: AURORA C
T34 construct: purchased Reaction Biology
T34 sequence (Q9UQB9 whole entry): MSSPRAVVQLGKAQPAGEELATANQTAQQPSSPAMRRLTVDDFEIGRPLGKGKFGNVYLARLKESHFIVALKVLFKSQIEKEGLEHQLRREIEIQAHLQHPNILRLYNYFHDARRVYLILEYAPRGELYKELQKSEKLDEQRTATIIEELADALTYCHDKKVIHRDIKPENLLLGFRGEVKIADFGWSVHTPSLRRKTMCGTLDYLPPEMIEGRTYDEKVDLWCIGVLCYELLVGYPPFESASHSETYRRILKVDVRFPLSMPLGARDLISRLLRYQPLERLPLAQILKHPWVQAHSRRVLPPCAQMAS

[35] = biological target: T35, 371 kinases (kinase named in each endpoint) (Homo sapiens, UniProt Q8TD19); conditions: NEK9
T35 construct: purchased Reaction Biology

[36] = biological target: T36, 371 kinases (kinase named in each endpoint) (Homo sapiens, UniProt P78362); conditions: SRPK2
T36 construct: purchased Reaction Biology

[37] = biological target: T37, 371 kinases (kinase named in each endpoint) (Homo sapiens, UniProt Q13177); conditions: PAK2
T37 construct: purchased Reaction Biology

T1 sequence (Q16539 whole entry): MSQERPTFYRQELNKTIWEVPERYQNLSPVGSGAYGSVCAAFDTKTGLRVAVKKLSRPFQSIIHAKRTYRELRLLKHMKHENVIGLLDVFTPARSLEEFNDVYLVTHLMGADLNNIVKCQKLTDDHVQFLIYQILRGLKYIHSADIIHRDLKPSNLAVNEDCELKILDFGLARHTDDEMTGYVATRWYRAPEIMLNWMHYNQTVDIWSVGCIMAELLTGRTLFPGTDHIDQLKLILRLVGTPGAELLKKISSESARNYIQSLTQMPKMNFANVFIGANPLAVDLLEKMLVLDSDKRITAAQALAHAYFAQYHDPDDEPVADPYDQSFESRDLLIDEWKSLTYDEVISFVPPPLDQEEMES

O=C(O)c1cc(C(F)(F)F)ccc1NCCc1c[nH]c2cc(Br)ccc12 [Compound 5, 2-((2-(6-Bromo-1H-indol-3-yl)ethyl)amino)−5-(trifluoromethyl)benzoic Acid]
activity at 10 µM [1]: 124.8 ± 0.6% | activity at 10 µM [2]: 77.2 ± 0.7% | activity at 10 µM [3]: 90.1 ± 1.1% | activity at 10 µM [4]: 78.3 ± 3.4% | activity at 10 µM [5]: 45.4 ± 0.9% | activity at 10 µM [6]: 76.5 ± 2.7% | activity at 10 µM [7]: 98.3 ± 1.2% | activity at 10 µM [8]: 79.9 ± 2.4% | activity at 10 µM [9]: 65.6 ± 1.3% | activity at 10 µM [10]: 67.9 ± 1.8% | activity at 10 µM [11]: 110.4 ± 0.1% | activity at 10 µM [12]: 104.4 ± 1% | activity at 10 µM [13]: 117 ± 1.2% | activity at 10 µM [14]: 96.5 ± 1.8% | activity at 10 µM [15]: 78.8 ± 0.4% | activity at 10 µM [16]: 94.6 ± 1% | activity at 10 µM [17]: 95.2 ± 1.2% | activity at 10 µM [18]: 97 ± 1% | activity at 10 µM [19]: 124 ± 1.4% | activity at 10 µM [20]: 81.4 ± 4.1% | activity at 10 µM [21]: 79.1 ± 1.6% | activity at 10 µM [22]: 92.9 ± 2.5% | activity at 10 µM [23]: 109 ± 2.6% | activity at 10 µM [24]: 75.2 ± 1.8% | activity at 10 µM [25]: 63.4 ± 6.7% | activity at 10 µM [26]: 96.7 ± 0.2% | activity at 10 µM [27]: 87.8 ± 1% | activity at 10 µM [28]: 104 ± 2.4% | activity at 10 µM [29]: 90.8 ± 1.1% | activity at 10 µM [30]: 75.5 ± 0.1% | activity at 10 µM [31]: 91.2 ± 0.3% | activity at 10 µM [32]: 60.1 ± 1.8% | activity at 10 µM [33]: 92.7 ± 1.3% | activity at 10 µM [34]: 98 ± 0.2% | activity at 10 µM [35]: 117 ± 3.3% | activity at 10 µM [36]: 95.1% | activity at 10 µM [37]: 95.6 ± 0.3%
